Measurements: patent US20220389009A1, “SUBSTITUTED 1,6-NAPHTHYRIDINE INHIBITORS OF CDK5” (Goldfinch Bio, Inc., priority 2019, published 2022)
Where two headings read alike, the source gives them in different places.

Experiments:
CDK5/p25 = CDK5/p25 (Homo sapiens, UniProt Q00535); test: CDK5 mobility shift assay (enzymatic activity of CDK5/p25); format: biochemical
Method in brief: (§1)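 Phosphorylation of 1.5 μM fluorescent peptide was read by microfluidic mobility shift and fitted to IC50 (4-parameter), normalized to no-compound and no-enzyme controls. CDK5/p25 ran at 0.154 nM with […] ATP for 60 min, using peptide 29. CDK2/CycA2 ran at 1.25 nM with 37 μM ATP for 120 min, using peptide 18. Both included a 30-min compound preincubation in pH 7.5 buffer.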

CDK2/CycA2 = CDK2/CycA2 (Homo sapiens, UniProt P24941); test: CDK2 mobility shift assay (enzymatic activity of CDK2/CycA2); format: biochemical
Method in brief: as §1

[1] = 0.154 nM CDK5/p25, FL peptide 29, 60 min at room temperature, read-out: CDK5 IC50
[2] = fold more active against CDK5 than CDK2
[3] = 1.25 nM CDK2/CycA2, 37 μM ATP, FL Peptide 18, 120 min at room temperature, read-out: CDK2 IC50

Chain of CDK5/p25 (Q00535 whole entry): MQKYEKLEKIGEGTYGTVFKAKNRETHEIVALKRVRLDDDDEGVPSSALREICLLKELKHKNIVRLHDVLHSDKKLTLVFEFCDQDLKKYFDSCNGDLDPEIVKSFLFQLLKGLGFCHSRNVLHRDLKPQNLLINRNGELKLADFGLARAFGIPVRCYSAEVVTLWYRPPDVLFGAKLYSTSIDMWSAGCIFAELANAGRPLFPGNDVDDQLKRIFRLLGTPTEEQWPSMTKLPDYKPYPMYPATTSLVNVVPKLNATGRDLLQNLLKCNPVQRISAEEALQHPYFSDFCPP
Chain of CDK5/p25 (Q15078 99-307 partner limits assumed): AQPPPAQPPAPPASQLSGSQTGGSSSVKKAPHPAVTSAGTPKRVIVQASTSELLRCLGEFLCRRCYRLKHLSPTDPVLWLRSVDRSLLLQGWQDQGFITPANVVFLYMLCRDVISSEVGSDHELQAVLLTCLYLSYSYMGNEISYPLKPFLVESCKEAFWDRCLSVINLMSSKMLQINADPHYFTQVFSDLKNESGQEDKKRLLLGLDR

IC50 (CDK5/p25; [1]) [nM]	IC50 (CDK2/CycA2; [3]) [nM]	Molecule	CDK5/CDK2 specificity (CDK5/p25; [2])	IC50 (CDK5/p25; CDK5 IC50) [nM]	IC50 (CDK2/CycA2; CDK2 IC50) [nM]	CDK5/CDK2 specificity (CDK5/p25)
< 10	10 to 100	CN1CCC(C(C)(F)c2ccc3cnc(Nc4ccc(-n5cccn5)cc4F)cc3n2)CC1 (single isomer, unassigned) [Compound 359, 2-[1-fluoro-1-(1-methylpiperidin-4-yl)ethyl]-N-[2-fluoro-4-(pyrazol-1-yl)phenyl]-1,6-naphthyridin-7-amine]	++ (greater than 10-fold and less than or equal to 100-fold more active against CDK5 than CDK2)	–	–	–
< 10	100 to 1000	CN1CCC(C(O)c2ccc3cnc(Nc4ccc(-n5ccc(C(=O)O)n5)cc4F)cc3n2)CC1 (stereo not drawn) [Compound 292, 1-[3-fluoro-4-([2-[hydroxy(1-methylpiperidin-4-yl)methyl]-1,6-naphthyridin-7-yl]amino)phenyl]pyrazole-3-carboxylic acid]	++ (greater than 10-fold and less than or equal to 100-fold more active against CDK5 than CDK2)	–	–	–
< 10	< 10	CN1CCC(C(C)(O)c2ccc3cnc(Nc4ccc(S(C)(=O)=O)cc4)cc3n2)CC1 (stereo not drawn) [Compound 370]	+ (10-fold or less more active against CDK5 than CDK2)	–	–	–
< 10	100 to 1000	COc1cccc(-c2ccc(Nc3cc4nc(S(=O)(=O)C5CCN(CC6COC6)CC5)ccc4cn3)c(F)c2)n1 [Compound 336]	+++ (greater than 100-fold more active against CDK5 than CDK2)	–	–	–
< 10	100 to 1000	CN1CCC(C(C)(O)c2ccc3cnc(Nc4cccc(N5CCOCC5)c4)cc3n2)CC1 (stereo not drawn) [Compound 348]	++ (greater than 10-fold and less than or equal to 100-fold more active against CDK5 than CDK2)	–	–	–
< 10	10 to 100	CN1CCC([C@@](C)(O)c2ccc3cnc(Nc4ccc(-c5cccc(C(N)=O)c5)cc4F)cc3n2)CC1 [Compound 364, (R)-3′-fluoro-4′-((2-(1-hydroxy-1-(1-methylpiperidin-4-yl)ethyl)-1,6-naphthyridin-7-yl)amino)-[1,1′-biphenyl]-3-carboxamide]	++ (greater than 10-fold and less than or equal to 100-fold more active against CDK5 than CDK2)	–	–	–
< 10	100 to 1000	CNC(=O)c1ccc(Nc2cc3nc(S(=O)(=O)C4CCN(C)CC4)ccc3cn2)cc1 [Compound 268]	++ (greater than 10-fold and less than or equal to 100-fold more active against CDK5 than CDK2)	–	–	–
< 10	100 to 1000	CN1CCC(S(=O)(=O)c2ccc3cnc(Nc4cccc(CN5CCOCC5)c4)cc3n2)CC1 [Compound 276]	++ (greater than 10-fold and less than or equal to 100-fold more active against CDK5 than CDK2)	–	–	–
10 to 100	> 1000	OCc1ccn(-c2ccc(Nc3cc4nc(C5(C6CCNCC6)CC5)ccc4cn3)c(F)c2)n1 [Compound 316, [1-[3-fluoro-4-([2-[1-(piperidin-4-yl)cyclopropyl]-1,6-naphthyridin-7-yl]amino)phenyl]pyrazol-3-yl]methanol]	++ (greater than 10-fold and less than or equal to 100-fold more active against CDK5 than CDK2)	–	–	–
< 10	100 to 1000	CN1CCC(S(=O)(=O)c2ccc3cnc(Nc4ccc(N5CCC(O)CC5)cc4)cc3n2)CC1 [Compound 304]	++ (greater than 10-fold and less than or equal to 100-fold more active against CDK5 than CDK2)	–	–	–
10 to 100	100 to 1000	CN1CCC(S(=O)(=O)c2ccc3cnc(Nc4ccon4)cc3n2)CC1 [Compound 269]	+ (10-fold or less more active against CDK5 than CDK2)	–	–	–
< 10	10 to 100	CN1CCC([C@@](C)(O)c2ccc3cnc(Nc4ccc(-c5cc[nH]n5)cc4F)cc3n2)CC1 [Compound 414, (1R)-1-(7-[[2-fluoro-4-(1H-pyrazol-3-yl)phenyl]amino]-1,6-naphthyridin-2-yl)-1-(1-methylpiperidin-4-yl)ethanol]	++ (greater than 10-fold and less than or equal to 100-fold more active against CDK5 than CDK2)	–	–	–
< 10	100 to 1000	CN1CCC(S(=O)(=O)c2ccc3cnc(Nc4ccc5oc(=O)ccc5c4)cc3n2)CC1 [Compound 272]	++ (greater than 10-fold and less than or equal to 100-fold more active against CDK5 than CDK2)	–	–	–
< 10	100 to 1000	CC1CCN(c2ccc(Nc3cc4nc(S(=O)(=O)C5CCN(C)CC5)ccc4cn3)cc2)CC1 [Compound 308]	+++ (greater than 100-fold more active against CDK5 than CDK2)	–	–	–
100 to 1000	> 1000	CN1CCC(C(C)(O)c2ccc3cnc(Nc4ccc(-c5ccc(=O)n(C)c5)cc4F)cc3n2)CC1 (stereo not drawn) [Compound 346]	++ (greater than 10-fold and less than or equal to 100-fold more active against CDK5 than CDK2)	–	–	–
< 10	100 to 1000	CN1CCC(S(=O)(=O)c2ccc3cnc(Nc4ccccc4F)cc3n2)CC1 [Compound 299]	++ (greater than 10-fold and less than or equal to 100-fold more active against CDK5 than CDK2)	–	–	–
< 10	10 to 100	Cc1ccc(F)c(Nc2cc3nc(C(O)(C4CCN(C)CC4)C(F)(F)F)ccc3cn2)c1 (stereo not drawn) [Compound 394]	++ (greater than 10-fold and less than or equal to 100-fold more active against CDK5 than CDK2)	–	–	–

The remaining lines, values behind:

Molecule	IC50 (CDK5/p25; [1]) [nM]	IC50 (CDK2/CycA2; [3]) [nM]	CDK5/CDK2 specificity (CDK5/p25; [2])	IC50 (CDK5/p25; CDK5 IC50) [nM]	IC50 (CDK2/CycA2; CDK2 IC50) [nM]	CDK5/CDK2 specificity (CDK5/p25)
[O-][S@@+](c1ccc2cnc(Nc3ccc(-n4cccn4)cc3F)cc2n1)C1CCNCC1 [Compound 115, N-[2-fluoro-4-(pyrazol-1-yl)phenyl]-2-[(R)-piperidine-4-sulfinyl]-1,6-naphthyridin-7-amine]	< 10	10 to 100	++ (greater than 10-fold and less than or equal to 100-fold more active against CDK5 than CDK2)	–	–	–
CN1CCC(S(=O)(=O)c2ccc3cnc(Nc4cccc(C#CC(C)(C)O)c4)cc3n2)CC1 [Compound 256]	< 10	10 to 100	+++ (greater than 100-fold more active against CDK5 than CDK2)	–	–	–
O=C(O)CN(c1ccc2cnc(Nc3ccc(-n4ccc(CO)n4)cc3F)cc2n1)[C@H]1CC[C@H](O)CC1 [Compound 110, [[7-([2-fluoro-4-[3-(hydroxymethyl)pyrazol-1-yl]phenyl]amino)-1,6-naphthyridin-2-yl][(1r,4r)-4-hydroxycyclohexyl]amino]acetic acid]	100 to 1000	> 1000	+ (10-fold or less more active against CDK5 than CDK2)	–	–	–
O=C(O)[C@H]1CNCC[C@@H]1Nc1ccc2cnc(Nc3ccc(-n4ccc(CO)n4)cc3F)cc2n1 [Compound 116, (3S,4S)-4-[[7-([2-fluoro-4-[3-(hydroxymethyl)pyrazol-1-yl]phenyl]amino)-1,6-naphthyridin-2-yl]amino]piperidine-3-carboxylic acid]	100 to 1000	> 1000	+ (10-fold or less more active against CDK5 than CDK2)	–	–	–
O=C(c1ccc2cnc(Nc3ccc(-n4cccn4)cc3F)cc2n1)C1CCNCC1 [Compound 141, N-[2-fluoro-4-(pyrazol-1-yl)phenyl]-2-(piperidine-4-carbonyl)-1,6-naphthyridin-7-amine]	< 10	10 to 100	++ (greater than 10-fold and less than or equal to 100-fold more active against CDK5 than CDK2)	–	–	–
O=C(O)[C@@H]1CNCC[C@@H]1Nc1ccc2cnc(Nc3ccc(-n4ccc(CO)n4)cc3F)cc2n1 (relative stereo) [Compound 131, cis-4-[[7-([2-fluoro-4-[3-(hydroxymethyl)pyrazol-1-yl]phenyl]amino)-1,6-naphthyridin-2-yl]amino]piperidine-3-carboxylic acid]	100 to 1000	> 1000	++ (greater than 10-fold and less than or equal to 100-fold more active against CDK5 than CDK2)	–	–	–
O=C(O)CN(c1ccc2cnc(Nc3ccc(-n4ccc(CO)n4)cc3F)cc2n1)C1CCNCC1 [Compound 101, [[7-([2-fluoro-4-[3-(hydroxymethyl)pyrazol-1-yl]phenyl]amino)-1,6-naphthyridin-2-yl](piperidin-4-yl)amino]acetic acid]	–	–	++ (greater than 10-fold and less than or equal to 100-fold more active against CDK5 than CDK2)	10 to 100	> 1000	–
CN1CCC(S(=O)(=O)c2ccc3cnc(Nc4ccc(-n5ccc(C(=O)O)n5)cc4F)cc3n2)CC1 [Compound 198, 1-(3-fluoro-4-((2-((1-methylpiperidin-4-yl)sulfonyl)-1,6-naphthyridin-7-yl)amino)phenyl)-1H-pyrazole-3-carboxylic acid]	< 10	100 to 1000	+++ (greater than 100-fold more active against CDK5 than CDK2)	–	–	–
CN1CCC(S(=O)(=O)c2ccc3cnc(Nc4ccc(N5CCOCC5)cc4)cc3n2)CC1 [Compound 262]	< 10	10 to 100	++ (greater than 10-fold and less than or equal to 100-fold more active against CDK5 than CDK2)	–	–	–
3-fluoro-4-([2-[(1R)-1-hydroxy-1-(1-methylpiperidin-4-yl)ethyl]-1,6-naphthyridin-7-yl]amino)-[1,1-biphenyl]-3-carboxylic acid [Compound 360]	< 10	10 to 100	–	–	–	++ (greater than 10-fold and less than or equal to 100-fold more active against CDK5 than CDK2)
COc1cc(Nc2cc3nc(S(=O)(=O)C4CCN(C)CC4)ccc3cn2)ccc1NS(C)(=O)=O [Compound 259]	< 10	10 to 100	++ (greater than 10-fold and less than or equal to 100-fold more active against CDK5 than CDK2)	–	–	–
